Data set [1] relates to Ctenocephalides felis. The experiment in a line: Ctenocephalides felis oral test (CTECFE). It counts as in vivo. The following applies: 48 h, 100 ppm in cattle blood, adult unfed cat fleas, after 2 days. The protocol:
Ctenocephalides felis—oral test (CTECFE)
(§1) Solvent: dimethyl sulfoxide
To produce a suitable preparation of active compound, 10 mg of active compound are dissolved in 0.5 ml solvent, and the concentrate is diluted with cattle blood to the desired concentration.
Approximately 20 adult unfed cat fleas (Ctenocephalides felis) are placed in flea chambers. The blood chamber, sealed with parafilm on the bottom, are filled with cattle blood supplied with compound solution and placed on the gauze covered top of the flea chamber, so that the fleas are able to suck the blood. The blood chamber is heated to 37° C. whereas the flea chamber is kept at room temperature.
After 2 days mortality in % is determined. 100% means all the fleas have been killed; 0% means none of the fleas have been killed.

A further data set deals with Diabrotica balteata. Description: Diabrotica balteata spray test. It counts as in vivo. The following applies: 160 gg/well, larvae on germinated wheat seeds, after 7 days. The protocol:
Diabrotica balteata—spray test
Further test concentrations are prepared by dilution with emulsifier containing water.
Soaked wheat seeds (Trificum aestivum) are placed in a multiple well plate filled with agar and some water and are incubated for 1 day to germinate (5 seeds per well). The germinated wheat seeds are sprayed with a test solution containing the desired concentration of the active ingredient. Afterwards each unit is infected with 10-20 larvae of the banded cucumber beetle (Diabrofica balteata).
After 7 days efficacy in % is determined.

For data set [2], the system named is Nilaparvata lugens. Description: Nilaparvata lugens spray test (solvent 52.5 parts acetone, 7 parts dimethylformamide). Format: in vivo. The following applies: in Oryza sativa, 96 h. How it is done: (§2) Nilaparvata Wens—spray test
To produce a suitable preparation of active compound, 1 part by weight of active compound is mixed with the stated amount of solvents and is diluted with water, containing an emulsifier concentration of 1000 ppm, to the desired concentration. Further test concentrations are prepared by dilution with emulsifier containing water Ammonium salt and/or penetration enhancer in a dosage of 1000 ppm are added to the desired concentration if necessary.
Rice plants (Oryza sativa) are treated by being sprayed with the desired concentration of the active compound and are infested with larvae of the brown planthopper (Nilaparvata lugens).
(§3) After 4 days mortality in % is determined. 100% means all planthoppers have been killed and 0% means none of the planthoppers have been killed.

The subject of data set [3] is Myzus persicae. Description: Myzus persicae spray test. Format: in vivo. The following applies: in Brassica rapa, foliar. How it is done: Myzus persicae—spray test
(§4) To produce a suitable preparation of active compound, 1 part by weight of active compound is mixed with the stated amount of solvents and is diluted with water, containing an emulsifier concentration of 1000 ppm, to the desired concentration. Further test concentrations are prepared by dilution with emulsifier containing water.
Chinese cabbage (Brassica pekinensis) leaf disks infected with all instars of the green peach aphid (Myzus persicae), are sprayed with a preparation of the active ingredient of the desired concentration.
After 5-6 days mortality in % is determined. 100% means all aphids have been killed and 0% means none of the aphids have been killed.

In a further data set the test system is Musca domestica. The experiment in a line: Musca domestica test (MUSCDO). Format: in vivo. The following applies: 48 h. How it is done: Musca domestica—test (MUSCDO)
as §1
To produce a suitable preparation of active compound, 10 mg of active compound are dissolved in 0.5 ml solvent, and the concentrate is diluted with water to the desired concentration.
10 adult house flies (Musca domestica) are transferred into a container, containing a sponge soaked with a mixture of sugar solution and compound solution of the desired concentration.
After 2 days mortality in % is determined. 100% means all the flies have been killed; 0% means none of the flies have been killed.

Another data set relates to Nezara viridula. Description: Nezara viridula spray test (solvent 52.5 parts acetone, 7 parts dimethylformamide). Format: in vivo. To be noted: in Hordeum vulgare, 96 h. How it is done:
Nezara viridula—spray test
To produce a suitable preparation of active compound, 1 part by weight of active compound is mixed with the stated amount of solvent, and the concentrate is diluted with water, containing an emulsifier concentration of 1000 ppm, to the desired concentration Ammonium salt and/or penetration enhancer in a dosage of 1000 ppm are added to the desired concentration if necessary.
Barley plants (Hordeum vulgare) infested with larvae of the southern green stink bug (Nezara viridula) are sprayed with a test solution containing the desired concentration of the active ingredient.
After 4 days mortality in % is determined. 100% means all the stink bugs have been killed; 0% means none of the stink bugs have been killed.

Data set [4] relates to Ctenocephalides felis. Description: Ctenocephalides felis in-vitro contact test, adult cat flea. It counts as in vivo. The following applies: 5 μg/cm^2 (=500 g/ha), after 48 hours. The protocol:
Ctenocephalides felis—in-vitro contact tests adult cat flea
9 mg compound is solved in 1 ml acetone and diluted with acetone to the desired concentration. 250 μl of the test solution is filled in 25ml glass test tubes and homogeneously distributed on the inner walls by rotation and tilting on a shaking device (2 h at 30 rpm). With a compound concentration of 900 ppm, an inner surface of 44,7 cm^2 and a homogeneous distribution, a dose of 5 μg/cm^2 is achieved.
After the solvent has evaporated, each test tube is filled with 5-10 adult cat fleas (Ctenocephalides felis), closed with a perforated lid and incubated in a lying position at room temperature and relative humidity. After 48 hours efficacy is determined. The fleas are patted on the ground of the tubes and are incubated on a heating plate at 45-50° C. for at most 5 minutes Immotile or uncoordinated moving fleas, which are not able to escape the heat by climbing upwards, are marked as dead or moribund.
An efficacy of 100% means all fleas are dead or moribund; 0% means no fleas are dead or moribund.

The subject of the next data set is Lucilia cuprina. The experiment in a line: Lucilia cuprina test (LUCICU). To be noted: 48 h. It counts as in vivo. The protocol:
Lucilia cuprina—test (LUCICU)
as §1
10 mg active compound are dissolved in 0,5 ml Dimethylsulfoxid. Serial dilutions are made to obtain the desired rates.
Approximately 20 1st instar larvae of the Australian sheep blowfly (Lucilia cuprina) are transferred into a test tube containing minced horse meat and compound solution of the desired concentration.
After 2 days mortality in % is determined. 100% means all the larvae have been killed; 0% means none of the larvae have been killed.

The next data set can be described thus: LogP-Value (HCOOH). It counts as physicochemical. To be noted: for chromatographic logP: HCOOH (formic acid).
The subject of data set [5] is Nilaparvata lugens. The experiment in a line: Nilaparvata lugens spray test (solvent 78.0 parts acetone, 1.5 parts dimethylformamide). It counts as in vivo. The following applies: in Oryza sativa, 96 h. The protocol: as §2, §4
Rice plants (Oryza sativa) are sprayed with a preparation of the active ingredient of the desired concentration and the plants are infested with the brown planthopper (Nilaparvata lugens).
as §3

The subject of a further data set is Phaedon cochleariae. Description: Phaedon cochleariae spray test. Format: in vivo. The following applies: foliar, 168 h, larvae on Chinese cabbage leaf disks, after 7 days. The protocol: Phaedon cochleariae—spray test
as §4
Chinese cabbage (Brassica pekinensis) leaf disks are sprayed with a preparation of the active ingredient of the desired concentration. Once dry, the leaf disks are infested with mustard beetle larvae (Phaedon cochleariae).
After 7 days mortality in % is determined. 100% means all beetle larvae have been killed and 0% means none of the beetle larvae have been killed.

The subject of data set [6] is Myzus persicae. Description: Myzus persicae oral test. Format: in vivo. To be noted: 120 h. The protocol:
To produce a suitable preparation of active compound, 1 part by weight of active compound is mixed with the stated amount of solvent, and the concentrate is diluted with water to the desired concentration.
50 μl compound solution is filled in microtiter plates and 150 μl IPL41 insect medium (33% +15% sugar) is added to obtain a total volume of […] per well. Afterwards the plates are sealed with parafilm through which a mixed population of the green peach aphid (Myzus persicae) can suck on the compound preparation.
After 5 days mortality in % is determined. 100% means all aphids have been killed and 0% means none of the aphids have been killed.

Where [7] appears, read: 100 ppm, 1st instar larvae, after 2 days, read-out: mortality.

Like-named read-outs stand apart in the source and are kept apart here.

As a reminder, the mortality is the percentage killed. One may read the chromatographic logP as lipophilicity estimated from chromatographic retention. The low end stands for a more hydrophilic compound, the high end for a more lipophilic compound.

As for `O=C(/C=C1\NCCN1Cc1cnc(Cl)c(F)c1)C(F)(F)F` [Example I-2, 3-[1-[(6-Chloro-5-fluoro-3-pyridinyl)methyl]-2-imidazolidinylidene]-1,1,1-trifluoro-2-propanone], the mortality at 100 ppm with Ctenocephalides felis [1] and in the data set with Lucilia cuprina (setting [7]) was 100% throughout. In addition, the “efficacy (seedlings grown up)” value in the data set on Diabrotica balteata came out at 100%. The values for the mortality at 500 g/ha with Nilaparvata lugens [2] and in the data set on Nezara viridula were 100% and 90%, respectively. Also, in the data set with Myzus persicae [3], the mortality at 100 g/ha stood at 100%. Besides, the mortality at 20 ppm in the data set on Musca domestica came out at 100%. Further, the “efficacy (fleas dead or moribund)” value in the data set with Ctenocephalides felis [4] is 100%. This compound returned a chromatographic logP in “LogP-Value (HCOOH)” of 2.19.

In the case of `Fc1cc(CN2CCN/C2=C\C(=S)C(F)(F)F)cnc1Cl` [Example I-4, 3-[1-[(6-Chloro-5-fluoro-3-pyridinyl)methyl]-2-imidazolidinylidene]-1,1,1-trifluoro-2-propanthione], the mortality at 500 g/ha in the data set on Nilaparvata lugens [5] was 100%; in the data set with Phaedon cochleariae it was 83%. Also, the mortality at 100 ppm in the data set on Ctenocephalides felis [1] stood at 95%; in the data set on Lucilia cuprina (setting [7]) it was 100%. In the data set with Diabrotica balteata, the “efficacy (seedlings grown up)” value turned out to be 100%. Also, the “efficacy (fleas dead or moribund)” value in the data set on Ctenocephalides felis [4] was determined as 100%. In the data set with Myzus persicae [6], this compound gave a mortality at 4 ppm of 100%. Besides, the “LogP-Value (HCOOH)” value in the data set “LogP-Value (HCOOH)” is 2,61. The chromatographic logP in “LogP-Value (HCOOH)” stood at 2.59.

As for `O=C(/C=C1\SCCN1Cc1cnc(Cl)c(F)c1)C(F)(F)F` [Example I-1], the “efficacy (seedlings grown up)” value with Diabrotica balteata amounted to 100%. For the same compound, the mortality at 500 g/ha in the data set on Nilaparvata lugens [2] was 100%. Further, the mortality at 100 g/ha in the data set with Myzus persicae [3] turned out to be 100%. The same compound gave a mortality at 20 ppm in the data set with Musca domestica of 90%. For the same compound, the mortality at 500 g/ha with Nezara viridula was determined as 100%. The “efficacy (fleas dead or moribund)” value in the data set on Ctenocephalides felis [4] was 100%. Further, the mortality at 100 ppm with Lucilia cuprina was found to be 100%. Also, in the data set “LogP-Value (HCOOH)”, the “LogP-Value (HCOOH)” value is on record as 2,48 and the chromatographic logP was found to be 2.47.

Consider `Fc1cc(CN2CCS/C2=C\C(=S)C(F)(F)F)cnc1Cl` [Example I-3, 3-[3-[(6-Chloro-5-fluoro-3-pyridinyl)methyl]-2-thiazolidinylidene]-1,1,1-trifluoro-2-propanthione], for which the mortality at 500 g/ha in the data set on Nilaparvata lugens [5] was found to be 100%. Further, the “efficacy (seedlings grown up)” value in the data set with Diabrotica balteata is recorded as 100%. In the data set with Myzus persicae [6], the mortality at 4 ppm came to 100% and the mortality at 20 ppm was determined as 100%. This compound had a mortality at 100 ppm in the data set on Lucilia cuprina of 100%. The compound also showed a chromatographic logP in the data set “LogP-Value (HCOOH)” of 1.2.

These data come from patent publication US20190150445A1, “SUBSTITUTED HALOGEN(THIO)ACYL COMPOUNDS” (priority 2016, published 2019).
